Assay results published in patent US20110053897A1 (IRM LLC, priority 2009, published 2011).
pIC50: −log10 of the molar value. Read-outs that look alike come from different tables or passages of the source.

Target: T1, Syk kinase (Homo sapiens, UniProt P43405)
T1 construct: purchased
Assay: Syk kinase inhibition, Caliper LabChip off-chip mobility-shift kinase assay
Format: biochemical
Conditions: read-out: Syk Enzyme IC50
Outline: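 Purified Syk pre-incubated 15 min with compound in 100 mM HEPES pH 7.5, 1 mM DTT, 10 mM MgCl2 or MnCl2, 0.002% Brij-35, then 1.5 μM fluorescein peptide and ATP at apparent KM added; 1–1.5 h at room temperature, 4% DMSO, EDTA stop. Microfluidic mobility-shift product/substrate conversion gave % inhibition; IC50 from 12-point series (10–0.00003 μM) by 4-parameter fit.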

Row | pIC50 | pIC50 (Caliper LabChip assay) | SMILES
1 | – | 7.12 | CC1(Cn2ccc3cc(-c4cnc(N)nc4)nc(NC4CCC4)c3c2=O)COC1 [compound 771]
2 | – | 7.22 | CC(C)(C)Nc1nc(Nc2cc(/C=C/CCO)ncn2)cc2ccn(CCO)c(=O)c12 [compound 627]
3 | – | 7.64 | CCn1ccc2cc(Nc3nccc(O)n3)nc(N[C@H]3CC[C@@H](O)C3)c2c1=O [compound 961]
4 | – | 7.21 | CCn1ccc2cc(Nc3nccc(O)n3)nc(N[C@@H]3CC[C@@H](O)C3)c2c1=O [compound 960]
5 | – | 8.70 | Nc1ncc(-c2cc3ccn(CCO)c(=O)c3c(N[C@H]3CC[C@@H](CO)C3)n2)cn1 [compound 912]
6 | – | 6.67 | CCn1ccc2cc(Nc3cnccn3)nc(Nc3ccc(C(=O)NCCO)cc3)c2c1=O [compound 831]
7 | – | 7.70 | Cc1ccnc(Nc2cc3ccn(C(C)C)c(=O)c3c(N[C@H]3CC[C@@H](O)C3)n2)c1 [compound 977]
8 | – | 7.62 | CCn1ccc2cc(Nc3cnccn3)nc(N[C@H]3CCC[C@H]3O)c2c1=O [compound 938]
9 | – | 6.76 | O=c1c2c(N[C@H]3CC[C@@H](O)CC3)nc(Nc3cnccn3)cc2ccn1Cc1ccncc1 [compound 1024]
10 | – | > 9.07 | CC1(Nc2nc(-c3cnc(N)nc3)cc3ccn(CCO)c(=O)c23)CCC1 [compound 907]
11 | – | 7.42 | Nc1ncc(-c2cc3ccn(CCO)c(=O)c3c(NC3CC3)n2)cn1 [compound 1035]
12 | – | 7.59 | CCn1ccc2cc(Nc3cnccn3)nc(NC3CCCC(O)C3)c2c1=O (stereo not shown) [compound 973]
13 | – | 8.30 | O=c1[nH]ccc2cc(Nc3cnccn3)nc(N[C@H]3CC[C@H](O)CC3)c12 [compound 976]
14 | – | 7.22 | CC(C)(C)Nc1nc(Nc2cc(OCC3CCCO3)ncn2)cc2ccn(CC(O)CO)c(=O)c12 (stereo not shown) [compound 891]
15 | – | 7.96 | CC(O)c1ccnc(Nc2cc3ccn(CCO)c(=O)c3c(NC3(C)CCC3)n2)c1 (stereo not shown) [compound 718]
16 | – | 7.24 | CC(C)(CO)Nc1nc(-c2cnc(N)nc2)cc2ccn(CCO)c(=O)c12 [compound 902]

Row | pIC50 | pIC50 (Caliper LabChip assay) | SMILES
17 | – | 6.52 | CC(C)Nc1nc(Nc2cc(N3CCC(O)CC3)ccn2)cc2ccn(CCO)c(=O)c12 [compound 852]
18 | – | 6.95 | Cc1cnccc1-c1ccnc(Nc2cc3ccn(CCO)c(=O)c3c(NC(C)(C)C)n2)c1 [compound 853]
19 | – | 8.40 | CCn1ccc2cc(-c3cnc(N)nc3)nc(NC(C)(C)CO)c2c1=O [compound 904]
20 | – | 8.05 | [2H]C([2H])([2H])n1ccc2cc(Nc3cnccn3)nc(N[C@H]3CC[C@@H](CO)C3)c2c1=O [compound 986]
21 | – | 7.24 | CC(C)(C)Nc1nc(-c2cnc(N)nc2)cc2ccn(C(C)(C)C(N)=O)c(=O)c12 [compound 673]
22 | – | 7.96 | COCc1ccnc(Nc2cc3ccn(CCO)c(=O)c3c(NC(C)(C)C)n2)c1 [compound 709]
23 | – | 8.30 | CC(C)(C)Nc1nc(Nc2cc(OC3CCNCC3)ncn2)cc2ccn(CCO)c(=O)c12 [compound 645, 8-(tert-butylamino)-2-(2-hydroxyethyl)-6-(6-(piperidin-4-yloxy)pyrimidin-4-ylamino)-2,7-naphthyridin-1(2H)-one]
24 | – | 7.29 | [2H]C([2H])([2H])n1ccc2cc(Nc3cc(C)ccn3)nc(N[C@H]3CC[C@H](O)CC3)c2c1=O [compound 983]
25 | – | 7.68 | CC(C)(C)Nc1nc(-c2cnc(N)nc2)cc2ccn(C3COC3)c(=O)c12 [compound 921]
26 | – | 8.15 | CCn1ccc2cc(-c3cnc(N)nc3)nc(N[C@H]3C[C@@H](CO)C3)c2c1=O [compound 748]
27 | – | 6.84 | CC(C)(Cc1ccc(F)cc1)Nc1nc(-c2cnc(N)nc2)cc2ccn(CCO)c(=O)c12 [compound 925]
28 | – | 6.12 | Cn1ccc2cc(Nc3nccc(O)n3)nc(Nc3ccc(C(=O)N4CCOCC4)cc3)c2c1=O [compound 805]
29 | – | 7.05 | CC1(Cn2ccc3cc(-c4cnc(N)nc4)nc(NC4CC(F)(F)C4)c3c2=O)COC1 [compound 758]
30 | – | 5.98 | Cc1ccnc(Nc2cc3ccn(CCO)c(=O)c3c(N)n2)c1 [compound 813]
31 | – | 7.82 | O=c1c2c(N[C@H]3CC[C@H](O)CC3)nc(Nc3cnccn3)cc2ccn1CCO [compound 989]

The next lines start with the molecule.

Row | SMILES | pIC50 | pIC50 (Caliper LabChip assay)
32 | Cc1ccnc(Nc2cc3ccn(C)c(=O)c3c(NCC(F)(F)F)n2)c1 [compound 493] | 6.67 | –
33 | Cc1ccnc(Nc2cc3ccn(C)c(=O)c3c(N[C@H]3CC[C@H](O)CC3)n2)c1 [compound 357] | 7.39 | –
34 | Cc1cc(Nc2nc(-c3ccc(N(C)C)nc3)cc3cc[nH]c(=O)c23)ccc1C1CCN(C2CC2)CC1 [compound 218] | 6.46 | –
35 | CCN(CC)CCNC(=O)c1ccc(Nc2nc(Nc3cnccn3)cc3ccn(C)c(=O)c23)cc1 [compound 338] | 5.79 | –
36 | [2H]C([2H])([2H])n1ccc2cc(Nc3cnccn3)nc(N[C@H]3CC[C@@H](O)CC3)c2c1=O [compound 377] | 7.47 | –
37 | CCN1CCC[C@@H]1CNC(=O)c1ccc(Nc2nc(-c3cncc(OC)n3)cc3cc[nH]c(=O)c23)cc1 [compound 83] | 7.85 | –
38 | COc1cncc(-c2cc3cc[nH]c(=O)c3c(Nc3ccc(CCCN4CCOCC4)cc3)n2)n1 [compound 40] | 7.02 | –
39 | COc1cncc(-c2cc3cc[nH]c(=O)c3c(Nc3ccc(C4CCN(C(=O)N5CCCC5)CC4)c(C)c3)n2)n1 [compound 113] | 5.64 | –
40 | COc1cncc(-c2cc3cc[nH]c(=O)c3c(Nc3ccc(C4CCN(C(=O)C5(C)COC5)CC4)c(C)c3)n2)n1 [compound 75] | 7.28 | –
41 | COc1cncc(-c2cc3cc[nH]c(=O)c3c(Nc3ccc(C4CCN(CCC(N)=O)CC4)c(C)c3)n2)n1 [compound 158] | 7.62 | –
42 | CCn1ccc2cc(-c3cnc(N)nc3)nc(NC3CC3)c2c1=O [compound 37] | 7.16 | –
43 | Cc1cc(Nc2nc(C(C)C)cc3cc[nH]c(=O)c23)ccc1C1CCN(C2CC2)CC1 [compound 231] | 6.06 | –
44 | Cc1ccnc(Nc2cc3ccn(C)c(=O)c3c(NC(C)(C)CO)n2)c1 [compound 486] | 7.35 | –
45 | COc1cncc(-c2cc3cc[nH]c(=O)c3c(Nc3ccc(CCN4CCNC(=O)C4)cc3)n2)n1 [compound 155] | 7.26 | –
46 | CCNC(=O)CN1CCC(c2ccc(Nc3nc(-c4cncc(OC)n4)cc4cc[nH]c(=O)c34)cc2C)CC1 [compound 179] | 7.10 | –
47 | Cc1cc(Nc2nc(C(C)O)cc3cc[nH]c(=O)c23)ccc1C1CCNCC1 (stereo not shown) [compound 236] | 7.92 | –
48 | COC[C@H](C)Nc1nc(Nc2cc(C)ccn2)cc2cc[nH]c(=O)c12 [compound 530] | 7.01 | –
49 | COc1cncc(-c2cc3cc[nH]c(=O)c3c(Nc3ccc(C4CCN(C(C)CC#N)CC4)c(C)c3)n2)n1 (stereo not shown) [compound 171] | 6.80 | –
50 | O=c1[nH]ccc2cc(Nc3cc(CO)ccn3)nc(NC3CC3)c12 [compound 518] | 7.23 | –
51 | [2H]C([2H])([2H])n1ccc2cc(Nc3cnccn3)nc(NC3CC3)c2c1=O [compound 467] | 7.31 | –
52 | Cc1ccc(Nc2cc3cc[nH]c(=O)c3c(Nc3ccc(C4CCN(C5CC5)CC4)c(C)c3)n2)nc1 [compound 249] | 5.80 | –
53 | CCC(=O)N1CCC(c2ccc(Nc3nc(-c4cncc(OC)n4)cc4cc[nH]c(=O)c34)cc2C)CC1 [compound 80] | 7.20 | –
54 | Cc1ccnc(Nc2cc3cc[nH]c(=O)c3c(NCC(C)C)n2)c1 [compound 282] | 6.30 | –

Row | SMILES | pIC50 | pIC50 (Caliper LabChip assay)
55 | CCn1ccc2cc(Nc3cc(C)ccn3)nc(N[C@H]3CCC[C@@H]3O)c2c1=O [compound 422] | 7.06 | –
56 | Nc1ncc(-c2cc3cc[nH]c(=O)c3c(NC3CCOC3)n2)cn1 (stereo not shown) [compound 185] | 6.84 | –
57 | Cc1ccnc(Nc2cc3ccn(CCO)c(=O)c3c(NC(C)C)n2)c1 [compound 313] | 7.07 | –
58 | CCn1ccc2cc(Nc3cc(C)ccn3)nc(N[C@@H]3CCC[C@@H]3O)c2c1=O [compound 418] | 6.74 | –
59 | CCN1CCN(CCc2ccc(Nc3nc(-c4cnn(CC(C)C)c4)cc4cc[nH]c(=O)c34)cc2)CC1 [compound 444] | 6.91 | –
60 | CCn1ccc2cc(Nc3cnccn3)nc(N[C@@H]3CCC[C@@H]3O)c2c1=O [compound 419] | 7.03 | –
61 | Cc1ccnc(Nc2cc3cc[nH]c(=O)c3c(N[C@@H]3CCC[C@H]3O)n2)c1 (racemic) [compound 267] | 7.25 | –
62 | NC(=O)c1ccnc(Nc2cc3cc[nH]c(=O)c3c(NC3CC3)n2)c1 [compound 559] | 6.53 | –
63 | COc1cncc(-c2cc3cc[nH]c(=O)c3c(Nc3ccc([C@H]4CC[C@H](N5CCOCC5)CC4)cc3)n2)n1 [compound 56] | 6.45 | –
64 | CCn1ccc2cc(Nc3cnccn3)nc(NC(C)(C)CO)c2c1=O [compound 471] | 7.00 | –
65 | CC(C)N1CCC(c2cc3cc[nH]c(=O)c3c(Nc3ccc(N4CCOCC4)cc3)n2)CC1 [compound 3] | 6.69 | –
66 | Cn1ccc2cc(Nc3ccccn3)nc(N)c2c1=O [compound 572] | 5.49 | –
67 | CCn1ccc2cc(Nc3cc(C)ccn3)nc(N[C@@H](C)CO)c2c1=O [compound 359] | 7.60 | –
68 | O=c1c2c(NCC(F)(F)F)nc(Nc3cc(Cl)ccn3)cc2ccn1CCO [compound 593] | 6.57 | –
69 | CCN1CCN(Cc2n[nH]c3cc(Nc4nc(-c5ccc(C)nc5)cc5cc[nH]c(=O)c45)ccc23)CC1 [compound 203] | 7.31 | –
70 | C[C@@H](O)CNc1nc(-c2cnc(N)nc2)cc2cc[nH]c(=O)c12 [compound 452] | 6.85 | –
71 | COCC(C)N1CCC(c2ccc(Nc3nc(-c4cncc(OC)n4)cc4cc[nH]c(=O)c34)cc2C)CC1 (stereo not shown) [compound 174] | 7.85 | –
72 | O=c1[nH]ccc2cc(Nc3ccccn3)nc(NC3CCOC3)c12 (stereo not shown) [compound 287] | 6.83 | –
73 | CCNC(=O)Cn1ccc2cc(Nc3cnccn3)nc(NC(C)C)c2c1=O [compound 321] | 6.75 | –
74 | CC(=O)c1cc2cc[nH]c(=O)c2c(Nc2ccc(N3CCO[C@H](C)C3)c(C)c2)n1 [compound 220] | 6.09 | –
75 | Cc1ccnc(Nc2cc3cc[nH]c(=O)c3c(NCC3CCNCC3)n2)c1 [compound 554] | 7.07 | –
76 | CO/N=C(\C)c1cc2cc[nH]c(=O)c2c(Nc2ccc(C3CCNCC3)c(C)c2)n1 [compound 235] | 6.99 | –
